From patent publication US9988348B1, “Synthesis and antimicrobial use of a trithiocarbonate derivative” (KING SAUD UNIVERSITY, priority 2017, dated 2018)
Marks after values point to notes of the source that are not given here.

Tested on: C. albicans
Assay: in vivo antifungal activity, candidemia in mice infected with C. albicans
Set-up: species or system Albino male mice; Total Protein Mean ± SE: unit not given here
Settings: for daily body weight / % change in daily body weight / Food consumption / Mortality / Water consumption: oral 12 mg/kg then 6 mg/ml
Experimental: To confirm that the water soluble form of the compound 4 has a biological activity as a novel antimicrobial agent, effectiveness of the compound 4 as a drug to treat candidemia in mice was investigated. The experiment was performed in Experimental Animal Care Center (EACC), College of Pharmacy, King Saud University, Riyadh. Fifty Albino male mice, weighing nearly 30±2 gram were used. The mice were arranged in five groups, each including ten mice caged together, given water, and feed ad libitum. Negative control and control group were infected intravenously with 0.2 ml of C. albicans suspension (10^6 CFU/mouse) and 0.2 ml of sterile normal saline (0.89% Nacl) respectively. The group treated with standard drug (fluconazole) was infected intravenously with 0.2 ml of C. albicans suspension (10^6 CFU/mouse) and treated (orally) by 12 mg/kg of fluconazole (loading dose) on the first day followed by 6 mg/ml for 2 weeks. The group treated with the investigated compound 4 was infected intravenously with C. albicans at 10^6 CFU/mouse (0.2 ml) and treated (orally) by 12 mg/kg of the compound 4 (loading dose) on the first day followed by 6 mg/ml for 2 weeks. To study the biological effects of compound 4, a fifth group was designed. In this group the mice were treated intravenously (I. V) with 12 mg/kg of the compound 4 on the first day followed by 6 mg/ml for 2 weeks. All doses of the standard drug and compound 4 were given twice daily.
The effectiveness of the previous treatments on some biological concepts were evaluated. The biological parameters included daily body weight (gm), mortality (%), food consumption (g/day/mouse), water consumption (ml/day/mouse), serum glutamic oxaloacetic transaminase [SGOT(AST) (U/L)], serum glutamic-pyruvic transaminase [SGPT(ALT)(U/L)], alkaline phosphatase (U/L), gamma-glutamyl transferase (GGT) (U/L), bilirubin (mg/dl)], cholesterol (mg/dl), triglycerides (mg/dl), high-density lipoprotein (HDL) (mg/dl), very-low-density lipoprotein (VLDL) (mg/dl), low-density lipoprotein (LDL) (mg/dl), lactate dehydrogenase (LDH) (U/L), glucose (mg/dl), total protein (mg/dl), malondialdehyde (MDA) (nmol/g), nonprotein sulfyhydryl (NP-SH) (nmol/g). Addition hematologic constituents including white blood cells (WBC) (cell/mm^3), red blood cells (RBC) (10^6/mm^3), hemoglobin (HGB) (g/dL), HCT, Platelets (PLT) (10^3/mm^3), mean corpuscular volume (MCV) (fL), mean corpuscular hemoglobin (MCH) (pg), mean corpuscular hemoglobin concentration (MCHC) (g/dL), neutrophils (%), lymphocytes (%), eosinophils (%) and monocytes (%)] were evaluated (Classics Lowry et al. 1951; Utley et al. 1967; Sedlak et al. 1968). SGOT (AST), SGPT (ALT), ALP, GGT, bilirubin LDH and total protein were estimated using Reflotron Plus Analyzer and Roche kits (Roche Diagnostics GmbH, Mannheim Germany) and United diagnostic kits assay. Hematological tests were performed by Mindray BC-2800VET auto Hematology Analyzer.

[1] = C. albicans-infected mice, day 1
[2] = C. albicans-infected mice, day 2
[3] = C. albicans-infected mice, day 3
[4] = C. albicans-infected mice, day 4
[5] = C. albicans-infected mice, day 5
[6] = C. albicans-infected mice, day 6
[7] = C. albicans-infected mice, day 7
[8] = C. albicans-infected mice, day 8
[9] = C. albicans-infected mice, day 9
[10] = C. albicans-infected mice, day 10
[11] = C. albicans-infected mice, day 11
[12] = C. albicans-infected mice, day 12
[13] = C. albicans-infected mice, day 13
[14] = C. albicans-infected mice, day 14
[15] = C. albicans-infected mice, day 15
[16] = blood, C. albicans-infected mice, oral 12 mg/kg then 6 mg/ml for 2 weeks
[17] = liver tissue, C. albicans-infected mice, oral 12 mg/kg then 6 mg/ml for 2 weeks
[18] = serum, C. albicans-infected mice, oral 12 mg/kg then 6 mg/ml for 2 weeks

**Q.** How did the daily body weight (C. albicans-infected mice, day 0) turn out when `CCOC(=O)CSC(=S)SCC(=O)OCC` [Compound 4, diethyl 2,2′-(thiocarbonylbis(sulfanediyl))diacetate] was run?
**A.** 21.00 ± 0.36 gm

**Q.** And the “% change in daily body weight” value [1]?
**A.** 2.38%

**Q.** What about the Food consumption [1] of the same molecule?
**A.** 4.5 g/day/mice

**Q.** And the Mortality [1]?
**A.** 0%

**Q.** And the Water consumption [1]?
**A.** 4.5 g/day/mice

**Q.** What about the daily body weight [1] of the same molecule?
**A.** 21.50 ± 0.26 gm

**Q.** What about the “% change in daily body weight” value [2] of the same molecule?
**A.** 4.76%

**Q.** What about the Food consumption [2] of the same molecule?
**A.** 4.6 g/day/mice

**Q.** What about the Mortality [2] of the same molecule?
**A.** 0%

**Q.** And the Water consumption [2]?
**A.** 4.5 g/day/mice

**Q.** And the daily body weight [2]?
**A.** 22.00 ± 0.25 gm

**Q.** And the “% change in daily body weight” value [3]?
**A.** 6.19%

**Q.** And the Food consumption [3]?
**A.** 4.7 g/day/mice

**Q.** And the Mortality [3]?
**A.** 0%

**Q.** And the Water consumption [3]?
**A.** 4.7 g/day/mice

**Q.** And the daily body weight [3]?
**A.** 22.3 ± 0.21 gm

**Q.** And the “% change in daily body weight” value [4]?
**A.** 9.04%

**Q.** And the Food consumption [4]?
**A.** 4.9 g/day/mice

**Q.** And the Mortality [4]?
**A.** 0%

**Q.** And the Water consumption [4]?
**A.** 4.9 g/day/mice

**Q.** And the daily body weight [4]?
**A.** 22.90 ± 0.27 gm

**Q.** What about the “% change in daily body weight” value [5] of the same molecule?
**A.** 12.16%

**Q.** And the Food consumption [5]?
**A.** 4.00 g/day/mice

**Q.** What about the Mortality [5] of the same molecule?
**A.** 10%

**Q.** What about the Water consumption [5] of the same molecule?
**A.** 4.2 g/day/mice

**Q.** What about the daily body weight [5] of the same molecule?
**A.** 23.55 ± 0.37 gm

**Q.** What about the “% change in daily body weight” value [6] of the same molecule?
**A.** 15.34%

**Q.** What about the Food consumption [6] of the same molecule?
**A.** 4.2 g/day/mice

**Q.** What about the Mortality [6] of the same molecule?
**A.** 10%

**Q.** And the Water consumption [6]?
**A.** 4.6 g/day/mice

**Q.** What about the daily body weight [6] of the same molecule?
**A.** 24.22 ± 0.32 gm

**Q.** What about the “% change in daily body weight” value [7] of the same molecule?
**A.** 17.46%

**Q.** And the Food consumption [7]?
**A.** 4.2 g/day/mice

**Q.** And the Mortality [7]?
**A.** 10%

**Q.** What about the Water consumption [7] of the same molecule?
**A.** 5.7 g/day/mice

**Q.** What about the daily body weight [7] of the same molecule?
**A.** 24.66 ± 0.23 gm

**Q.** And the “% change in daily body weight” value [8]?
**A.** 18.45%

**Q.** And the Food consumption [8]?
**A.** 4.3 g/day/mice

**Q.** And the Mortality [8]?
**A.** 20%

**Q.** And the Water consumption [8]?
**A.** 4.6 g/day/mice

**Q.** What about the daily body weight [8] of the same molecule?
**A.** 24.87 ± 0.29 gm

**Q.** What about the “% change in daily body weight” value [9] of the same molecule?
**A.** 20.23%

**Q.** And the Food consumption [9]?
**A.** 4.5 g/day/mice

**Q.** What about the Mortality [9] of the same molecule?
**A.** 20%

**Q.** What about the Water consumption [9] of the same molecule?
**A.** 4.6 g/day/mice

**Q.** And the daily body weight [9]?
**A.** 25.25 ± 0.25 gm

**Q.** And the “% change in daily body weight” value [10]?
**A.** 20.83%

**Q.** What about the Food consumption [10] of the same molecule?
**A.** 4.5 g/day/mice

**Q.** And the Mortality [10]?
**A.** 20%

**Q.** And the Water consumption [10]?
**A.** 4.8 g/day/mice

**Q.** And the daily body weight [10]?
**A.** 25.37 ± 0.26 gm

**Q.** What about the “% change in daily body weight” value [11] of the same molecule?
**A.** 24.48%

**Q.** What about the Food consumption [11] of the same molecule?
**A.** 4.7 g/day/mice

**Q.** And the Mortality [11]?
**A.** 30%

**Q.** What about the Water consumption [11] of the same molecule?
**A.** 5.1 g/day/mice

**Q.** And the daily body weight [11]?
**A.** 26.14 ± 0.26 gm

**Q.** What about the “% change in daily body weight” value [12] of the same molecule?
**A.** 25.17%

**Q.** And the Food consumption [12]?
**A.** 5.0 g/day/mice

**Q.** And the Mortality [12]?
**A.** 30%

**Q.** And the Water consumption [12]?
**A.** 5.4 g/day/mice

**Q.** What about the daily body weight [12] of the same molecule?
**A.** 26.28 ± 0.28 gm

**Q.** What about the “% change in daily body weight” value [13] of the same molecule?
**A.** 29.93%

**Q.** And the Food consumption [13]?
**A.** 5.14 g/day/mice

**Q.** What about the Mortality [13] of the same molecule?
**A.** 30%

**Q.** And the Water consumption [13]?
**A.** 5.5 g/day/mice

**Q.** What about the daily body weight [13] of the same molecule?
**A.** 27.28 ± 0.28 gm

**Q.** And the “% change in daily body weight” value [14]?
**A.** 34.92%

**Q.** What about the Food consumption [14] of the same molecule?
**A.** 5.3 g/day/mice

**Q.** What about the Mortality [14] of the same molecule?
**A.** 30%

**Q.** What about the Water consumption [14] of the same molecule?
**A.** 5.5 g/day/mice

**Q.** What about the daily body weight [14] of the same molecule?
**A.** 28.33 ± 0.49 gm

**Q.** And the “% change in daily body weight” value [15]?
**A.** 36.50%

**Q.** What about the Food consumption [15] of the same molecule?
**A.** 5.5 g/day/mice

**Q.** And the Mortality [15]?
**A.** 30%

**Q.** What about the Water consumption [15] of the same molecule?
**A.** 5.8 g/day/mice

**Q.** What about the daily body weight [15] of the same molecule?
**A.** 28.66 ± 0.33 gm

**Q.** And the “Eosinophils Mean ± SE” value [16]?
**A.** 1.30 ± 0.02%

**Q.** What about the “HCT Mean ± SE” value [16] of the same molecule?
**A.** 31.3 ± 0.42

**Q.** And the “HGB Mean ± SE” value [16]?
**A.** 9.8 ± 0.14 g/dL

**Q.** And the “Lymphocytes Mean ± SE” value [16]?
**A.** 7.10 ± 0.07%

**Q.** And the “MCH Mean ± SE” value [16]?
**A.** 26.3 ± 0.5 pg

**Q.** What about the “MCHC Mean ± SE” value [16] of the same molecule?
**A.** 23.4 ± 1.0 g/dL

**Q.** And the “MCV Mean ± SE” value [16]?
**A.** 53.7 ± 2.0 fL

**Q.** What about the “Monocytes Mean ± SE” value [16] of the same molecule?
**A.** 0.88 ± 0.07^b %

**Q.** What about the “Neutrophils Mean ± SE” value [16] of the same molecule?
**A.** 24.1 ± 0.2%

**Q.** And the “PLT Mean ± SE” value [16]?
**A.** 522.3 ± 10.1 10^3/mm^3

**Q.** And the “RBC Mean ± SE” value [16]?
**A.** 6.16 ± 0.1 10^6/mm^3

**Q.** And the “WBC Mean ± SE” value [16]?
**A.** 7540.8 ± 87.3 Cell/mm^3

**Q.** And the “effect on mortality caused by C. albicans, in words” value (dose of 800 mg as the loading dose, followed by 400 mg/d for 2 week)?
**A.** reduced the mortality

**Q.** And the MDA [17]?
**A.** 4.57 ± 0.25***^b nmol/g

**Q.** What about the “Total Protein” value [17] of the same molecule?
**A.** 77.84 ± 2.37**^b g/l

**Q.** And the “Alkaline phosphatase Mean ± SE” value [18]?
**A.** 354.66 ± 5.57 U/L

**Q.** And the “Bilirubin Mean ± SE” value [18]?
**A.** 1.15 ± 0.03 mg/dL

**Q.** And the “Cholesterol Mean ± SE” value [18]?
**A.** 159.8 ± 3.4 mg/dL

**Q.** And the “GGT Mean ± SE” value [18]?
**A.** 7.18 ± 0.20 U/L

**Q.** What about the “Glucose level Mean ± SE” value [18] of the same molecule?
**A.** 166.83 ± 4.32**^b mg/dl

**Q.** What about the “HDL Mean ± SE” value [18] of the same molecule?
**A.** 26.9 ± 1.1 mg/dL

**Q.** And the “LDH Mean ± SE” value [18]?
**A.** 220.98 ± 3.96**^b U/L

**Q.** And the “LDL Mean ± SE” value [18]?
**A.** 105.9 ± 4.6 mg/dL

**Q.** And the “SGOT(AST) Mean ± SE” value [18]?
**A.** 169.33 ± 2.69 U/L

**Q.** What about the “SGPT(ALT) Mean ± SE” value [18] of the same molecule?
**A.** 83.50 ± 2.35 U/L

**Q.** And the “Total Protein Mean ± SE” value [18]?
**A.** 4.91 ± 0.09

**Q.** What about the “Triglycerides Mean ± SE” value [18] of the same molecule?
**A.** 134.8 ± 3.8 mg/dL

**Q.** What about the “VLDL Mean ± SE” value [18] of the same molecule?
**A.** 26.9 ± 0.7 mg/dL
